# Measured values from ChEMBL document CHEMBL1201862, “PubChem BioAssay data set” (2004).
#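 Compound exposure: 48 hours, 5 concentrations, 96-well plates. GI50 is the concentration that inhibits growth by half.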 Calls of active or inactive are those of the source. Rule as the data show it: active = GI50 up to about 1.1 µM and inactive = higher.
# Assays:
# Assay in all cases: inhibition of tumour cell growth, NCI panel, 48 h
# SK-MEL-5 = test system: SK-MEL-5
# 786-0 = test system: 786-0
# NCI-H226 = test system: NCI-H226
# A498 = test system: A498
# Malme-3M = test system: Malme-3M
# MCF7 = test system: MCF7
# Hs-578T = test system: Hs-578T
# HT-29 = test system: HT-29
# CCRF-CEM = test system: CCRF-CEM
# TK-10 = test system: TK-10
# SNB-75 = test system: SNB-75
# EKVX = test system: EKVX
# OVCAR-4 = test system: OVCAR-4
# SK-MEL-28 = test system: SK-MEL-28
# SK-OV-3 = test system: SK-OV-3
# UO-31 = test system: UO-31
# LOX IMVI = test system: LOX IMVI
# ACHN = test system: ACHN
# MDA-MB-231 = test system: MDA-MB-231
# SN12C = test system: SN12C
# COLO 205 = test system: COLO 205
# HOP-62 = test system: HOP-62
# SK-MEL-2 = test system: SK-MEL-2
# SNB-19 = test system: SNB-19
# SF-295 = test system: SF-295
# NCI-H23 = test system: NCI-H23
# NCI-H460 = test system: NCI-H460
# HOP-92 = test system: HOP-92
# MOLT-4 = test system: MOLT-4
# UACC-62 = test system: UACC-62
# DU-145 = test system: DU-145
# CAKI-1 = test system: CAKI-1
# MDA-MB-435 = test system: MDA-MB-435
# RXF 393 = test system: RXF 393
# A549 = test system: A549
# SF-268 = test system: SF-268
# UACC-257 = test system: UACC-257
# BT-549 = test system: BT-549
# RPMI-8226 = test system: RPMI-8226
# HCT-116 = test system: HCT-116
# HL-60 = test system: HL-60
# M14 = test system: M14
# NCI/ADR-RES = test system: NCI/ADR-RES
# SW-620 = test system: SW-620
# MDA-N = test system: MDA-N
# IGROV-1 = test system: IGROV-1
# T47D = test system: T47D
# PC-3 = test system: PC-3
# K562 = test system: K562
# HCC 2998 = test system: HCC 2998
# NCI-H522 = test system: NCI-H522
# SR = test system: SR
# OVCAR-8 = test system: OVCAR-8
# U-251 = test system: U-251
# HCT-15 = test system: HCT-15
# KM12 = test system: KM12
# OVCAR-5 = test system: OVCAR-5
# OVCAR-3 = test system: OVCAR-3
# SF-539 = test system: SF-539
structure (smiles),measurement,setting,value
COc1cccc(C(=O)C#Cc2cnc(OC)nc2OC)c1,GI50,SK-MEL-5,1.24 µM (inactive)
same,GI50,786-0,1.83 µM (inactive)
same,GI50,NCI-H226,1.11 µM (active)
same,GI50,A498,8.69 µM (inactive)
same,GI50,Malme-3M,1.38 µM (inactive)
same,GI50,MCF7,0.126 µM (active)
same,GI50,Hs-578T,7.66 µM (inactive)
same,GI50,HT-29,1.09 µM (active)
same,GI50,CCRF-CEM,0.0286 µM (active)
same,GI50,TK-10,1.43 µM (inactive)
same,GI50,SNB-75,2.26 µM (inactive)
same,GI50,EKVX,1.72 µM (inactive)
same,GI50,OVCAR-4,2.36 µM (inactive)
same,GI50,SK-MEL-28,2.04 µM (inactive)
same,GI50,SK-OV-3,18.1 µM (inactive)
same,GI50,UO-31,1.37 µM (inactive)
same,GI50,LOX IMVI,0.119 µM (active)
same,GI50,ACHN,1.73 µM (inactive)
same,GI50,MDA-MB-231,3.41 µM (inactive)
same,GI50,SN12C,0.753 µM (active)
same,GI50,COLO 205,1.77 µM (inactive)
same,GI50,HOP-62,13.5 µM (inactive)
same,GI50,SK-MEL-2,1.8 µM (inactive)
same,GI50,SNB-19,15.8 µM (inactive)
same,GI50,SF-295,14.2 µM (inactive)
same,GI50,NCI-H23,1.98 µM (inactive)
same,GI50,NCI-H460,9.08 µM (inactive)
same,GI50,HOP-92,2.09 µM (inactive)
same,GI50,MOLT-4,0.155 µM (active)
same,GI50,UACC-62,1.36 µM (inactive)
same,GI50,DU-145,5.87 µM (inactive)
same,GI50,CAKI-1,1.99 µM (inactive)
same,GI50,MDA-MB-435,1.86 µM (inactive)
same,GI50,RXF 393,0.331 µM (active)
same,GI50,A549,4.82 µM (inactive)
same,GI50,SF-268,2.49 µM (inactive)
same,GI50,UACC-257,2.15 µM (inactive)
same,GI50,BT-549,0.306 µM (active)
same,GI50,RPMI-8226,2.01 µM (inactive)
same,GI50,HCT-116,3.18 µM (inactive)
same,GI50,HL-60,0.682 µM (active)
same,GI50,M14,1.21 µM (inactive)
same,GI50,NCI/ADR-RES,1.85 µM (inactive)
same,GI50,SW-620,0.504 µM (active)
same,GI50,MDA-N,1.49 µM (inactive)
same,GI50,IGROV-1,0.653 µM (active)
same,GI50,T47D,1.83 µM (inactive)
same,GI50,PC-3,1.37 µM (inactive)
same,GI50,K562,0.356 µM (active)
same,GI50,HCC 2998,6.43 µM (inactive)
same,GI50,NCI-H522,0.226 µM (active)
same,GI50,SR,0.108 µM (active)
same,GI50,OVCAR-8,1.7 µM (inactive)
same,GI50,U-251,2.84 µM (inactive)
same,GI50,HCT-15,0.2 µM
same,GI50,KM12,3.94 µM (inactive)
same,GI50,OVCAR-5,2.91 µM (inactive)
same,GI50,OVCAR-3,1.81 µM (inactive)
COc1ccc2cc(C(C)C(=O)N3CCOC3=O)ccc2c1 (stereo unspecified),GI50,SK-MEL-5,> 100 µM (inactive)
same,GI50,786-0,> 100 µM (inactive)
same,GI50,NCI-H226,> 100 µM (inactive)
same,GI50,A498,71.4 µM (inactive)
same,GI50,Malme-3M,> 100 µM (inactive)
same,GI50,MCF7,> 100 µM (inactive)
same,GI50,Hs-578T,> 100 µM (inactive)
same,GI50,HT-29,> 100 µM (inactive)
same,GI50,CCRF-CEM,> 100 µM (inactive)
same,GI50,TK-10,> 100 µM (inactive)
same,GI50,SNB-75,44.7 µM (inactive)
same,GI50,EKVX,> 100 µM (inactive)
same,GI50,OVCAR-4,> 100 µM (inactive)
same,GI50,SK-MEL-28,> 100 µM (inactive)
same,GI50,SK-OV-3,> 100 µM (inactive)
same,GI50,UO-31,> 100 µM (inactive)
same,GI50,LOX IMVI,> 100 µM (inactive)
same,GI50,ACHN,> 100 µM (inactive)
same,GI50,MDA-MB-231,> 100 µM (inactive)
same,GI50,SN12C,> 100 µM (inactive)
same,GI50,COLO 205,> 100 µM (inactive)
same,GI50,HOP-62,> 100 µM (inactive)
same,GI50,SNB-19,> 100 µM (inactive)
same,GI50,SF-295,> 100 µM (inactive)
same,GI50,NCI-H23,> 100 µM (inactive)
same,GI50,NCI-H460,> 100 µM (inactive)
same,GI50,HOP-92,> 100 µM (inactive)
same,GI50,MOLT-4,> 100 µM (inactive)
same,GI50,UACC-62,> 100 µM (inactive)
same,GI50,DU-145,> 100 µM (inactive)
same,GI50,CAKI-1,> 100 µM (inactive)
same,GI50,MDA-MB-435,> 100 µM (inactive)
same,GI50,RXF 393,> 100 µM (inactive)
same,GI50,A549,> 100 µM (inactive)
same,GI50,SF-268,> 100 µM (inactive)
same,GI50,UACC-257,> 100 µM (inactive)
same,GI50,BT-549,> 100 µM (inactive)
same,GI50,RPMI-8226,> 100 µM (inactive)
same,GI50,HCT-116,> 100 µM (inactive)
same,GI50,HL-60,> 100 µM (inactive)
same,GI50,M14,> 100 µM (inactive)
same,GI50,NCI/ADR-RES,> 100 µM (inactive)
same,GI50,SW-620,> 100 µM (inactive)
same,GI50,MDA-N,> 100 µM (inactive)
same,GI50,IGROV-1,> 100 µM (inactive)
same,GI50,T47D,> 100 µM (inactive)
same,GI50,PC-3,> 100 µM (inactive)
same,GI50,K562,> 100 µM (inactive)
same,GI50,HCC 2998,> 100 µM (inactive)
same,GI50,NCI-H522,> 100 µM (inactive)
same,GI50,SR,> 100 µM (inactive)
same,GI50,OVCAR-8,> 100 µM (inactive)
same,GI50,U-251,> 100 µM (inactive)
same,GI50,HCT-15,> 100 µM
same,GI50,KM12,> 100 µM (inactive)
same,GI50,OVCAR-5,> 100 µM (inactive)
same,GI50,SF-539,> 100 µM (inactive)
same,GI50,OVCAR-3,> 100 µM (inactive)
